Experimental data: the METLIN SMRT retention time set (Domingo-Almenara et al. 2019)

Experiment: gradient 5% acetonitrile 3 min, to 50% in 2 min, to 85% in 15 min, held 3 min, 100 µL/min
Settings: column: Zorbax Extend-C18 2.1 x 50 mm; eluents: water / acetonitrile, 0.1% formic acid
How it was run: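 The system's dead and dwell volumes were 40 μL and 900 μL, with a Zorbax Extend-C18 column (2.1 × 50 mm, 1.8 μm) run at 100 μL/min in water and acetonitrile containing 0.1% formic acid each. Pure standards were analyzed in mixtures of ~100 molecules by HPLC–quadrupole time-of-flight mass spectrometry in positive and negative ionization mode. Retention time was assigned from computationally picked, manually inspected adduct peaks.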

SMILES | RP-LC retention time [s]
COc1ccc(-c2nc(C)cc(C)c2CNC(=O)C2CCC2)cc1 | 584
CCc1ccc(N2CCC(C(=O)NCCc3c[nH]c4ccc(C)cc34)C2=O)cc1 (stereo unspecified) | 1010
CCCN(C)c1nccn2c(=O)n(CC(=O)Nc3ccc(C)c(F)c3)nc12 | 726
COc1cc(C2CC(=O)N(CC(=O)N3CCCCC3)c3ccccc3S2)cc(OC)c1OC (stereo unspecified) | 871
COc1ccccc1NC(=O)N1CCCC(C)(C(=O)NCc2ccccc2C)C1 (stereo unspecified) | 859
Cc1ccc(NC(=O)N2CCCC(C)(C(=O)NCc3ccccc3)C2)c(C)c1 (stereo unspecified) | 924
O=C1NC(=S)S/C1=C\c1cc(Br)ccc1OCc1ccccc1Br | 1270
Cc1ccccc1NC(=O)NCCc1nc2cccnc2n1C1CCCC1 | 708
Cc1ccccc1-n1c(Cn2ncc3c(N)ncnc32)nc2cccc(C)c2c1=O | 719
CCc1nc2cc(N3CCC(C(=O)NCCN4CCCCC4C)CC3)cnc2nc1CC (stereo unspecified) | 605
O=C(Nc1ccccc1Cl)N1CCC(N2CCN(Cc3cccc(F)c3)C(=O)C2=O)CC1 | 749
C[C@H]1CN(C(=O)Nc2ccc(Cl)cc2)C[C@@H]1c1nc(-c2ccccc2)no1 | 1080
O=C(c1cc2cc(Br)ccc2oc1=O)N1CCN(c2ccccn2)CC1 | 616
CS(=O)(=O)Nc1ccc(-c2noc(CNC(=O)Cc3ccc(Cl)cc3)n2)cc1 | 788
CSc1ccc(CNC(=O)CN2C(=O)C3CCCCN3c3ccc(C(=O)N4CCCC4)cc32)cc1 (stereo unspecified) | 850
CC(=O)N1c2ccc(S(=O)(=O)N3CCCC3)cc2CC1C(=O)N1CCN(c2ccccn2)CC1 (stereo unspecified) | 609
COC(=O)CCc1sc(Nc2c(C)n[nH]c2C)nc1-c1ccc(OC)cc1 | 664
CCCNc1cc(N2CCC(CCC(=O)NCc3ccccc3OC)CC2)ncn1 | 684
O=C(Nc1ccc(Cl)cc1C(=O)c1ccccc1)c1ccc(N2C(=O)CCC2=O)cc1 | 896
COc1ccc(OCc2nn3c(COc4ccc(F)cc4)nnc3s2)cc1 | 928
CN(CCCNC(=O)C1CCc2nc(N3CCOCC3)ncc2C1)c1ccccc1 (stereo unspecified) | 602
CC(C)CNC(=O)c1cn(-c2cc(-c3nc(C4CC4)no3)ccn2)cn1 | 646

SMILES | RP-LC retention time [s]
COc1ccc(-c2nc(C)cc(C)c2CNS(=O)(=O)c2cccc(F)c2)cc1 | 657
CCc1noc(NC(C)=O)c1-c1ccc(OC)c(S(=O)(=O)Nc2ccc(OC)c(OC)c2)c1 | 688
O=C(c1ccc(F)c(Cl)c1)N1CCc2nc[nH]c2C1 | 592
COc1ccc(S(=O)(=O)N(C(C)=O)c2ccccc2/C=C/c2cc[n+]([O-])cc2)cc1 | 785
O=C(NCc1cccs1)C1CCCN(S(=O)(=O)c2c[nH]c(C(=O)N3CCCC3)c2)C1 (stereo unspecified) | 734
CCc1ccc(C2=C(C)C(N3CCCN(C(=O)NCC(C)C)CC3)=NS2(=O)=O)cc1 | 842
Cc1ccc(NC(=O)N(C)CCc2noc(COc3ccccc3)n2)cc1 | 892
Cc1ccc(S(=O)(=O)c2cnc(N3CCN(c4ccccc4)CC3)nc2N)cc1C | 1110
Clc1ccc(-c2nc3ccc(Cl)cn3c2Nc2ccc3c(c2)OCCO3)cc1 | 915
Cc1nc2ccn(Cc3cccs3)c(=O)c2cc1C(=O)NCC1CCCO1 (stereo unspecified) | 670
O=C(Nc1ccc(OCC(=O)N2CCN(c3ccccc3F)CC2)nc1)C1CC1 | 648
CCOC(=O)N1CCC(NC(=O)C(=O)NCCC2=CCCCC2)CC1 | 842
COc1ccc(NC(=O)c2cn(-c3cc(N4CCCCC4C)ncn3)cn2)cc1OC (stereo unspecified) | 939
N#CCc1cnc2ccccc2n1 | 720
COC(=O)CNC(=O)NC(C)C(=O)N1CCc2ccccc21 (stereo unspecified) | 662
CCc1ccc(C(=O)c2cnc3cc4c(cc3c2N2CCN(CC)CC2)OCO4)cc1 | 608
COc1ccc(CNC(=O)C2CCCN(c3cnc4nc(C)c(C)nc4c3)C2)cc1 (stereo unspecified) | 710
Cc1ccc(C)c(N2CCN(C(=O)c3c(C)sc4ccn(C)c(=O)c34)CC2)c1 | 946
CC(=O)Nc1ccc(NC(=O)c2cc3sccc3n2Cc2ccc(F)cc2)cc1 | 911
CCCN1C(=O)COc2cc(-c3noc(C(=O)NCC(C)c4ccccc4)n3)ccc21 (stereo unspecified) | 793
Cc1cc(C)cc(NC(=O)Cn2cc(C(=O)N3CCCC3)c(=O)c3ccc(C)nc32)c1 | 758
Cc1ccc(Cn2cccc2C(=O)C(=O)NC2CC2)cc1 | 928

SMILES | RP-LC retention time [s]
O=C(C1=CN(c2cccc(Cl)c2)c2ccccc2S1(=O)=O)N1CCOCC1 | 782
CCOC(=O)c1noc2ncnc(NCCCN3CCN(c4cc(C)ccc4C)CC3)c12 | 738
Cc1cc(F)ccc1NC(=O)c1cnn2c1CCCC2 | 720
CCCCN(C)C(=O)CSc1ncc(S(=O)(=O)c2cccs2)c(N)n1 | 749
Cc1ccc(Nc2c(-c3cccc(O)c3)nc3ncccn23)cc1C | 705
CCCn1c(=O)c(C)nc2cc(-c3noc(Cc4ccc(F)cc4)n3)ccc21 | 1060
CCN(CC)CCCNC(=O)c1c(-c2ccc(Br)s2)noc1C | 652
Cc1cc(N2CCN(C)CC2)nc2ccc(NC(=O)C(C)Oc3ccc(Cl)cc3Cl)cc12 (stereo unspecified) | 690
CS(=O)(=O)N1CCCc2cc(C(=O)NCCN3CCOCC3)ccc21 | 573
COc1ccc(-c2nnc(-c3cc(S(=O)(=O)NC(C)C)ccc3Cl)o2)cc1 | 967
CC(=O)c1ccc(OCC(O)CN2CCN(Cc3ccc(Cl)cc3)CC2)cc1 (stereo unspecified) | 574
CCc1cc(=O)n(CC(=O)Nc2ccc(C)cc2)c(N)n1 | 617
CSc1ccccc1C(=O)NCC1(c2ccc(F)cc2)CC1 | 875
CCN1CCN(c2cc(C)c3cc(NC(=O)CCC4CCCC4)ccc3n2)CC1 | 620
Cc1ccc(C)c(NC(=O)Cn2c(N3CCOCC3)nc(C)cc2=O)c1 | 770
CCn1cc(CCNC(=O)c2sccc2C)c2cccnc21 | 705
COc1cccc(-c2csc(-c3nnn(-c4ccccc4)c3N)n2)c1 | 1040
COc1cc(Nc2ncc3c(n2)-c2ccc(Cl)cc2C(c2c(F)cccc2OC)=NC3)ccc1C(=O)O | 919
COc1ccc(NC(=O)c2cccs2)c([N+](=O)[O-])c1 | 860
N#Cc1cccc(S(=O)(=O)N2CCc3nc(-c4ccc(Cl)cc4)ncc3C2)c1 | 1130
O=C(Cn1c(=O)oc2ccccc21)NCCc1csc2nc(-c3ccccc3F)nn12 | 746
CCn1c(N2CCCC(C(=O)Nc3cc(OC)cc(OC)c3)C2)cc(=O)n(C)c1=O (stereo unspecified) | 829
